The results in this text go back to BindingDB's records for patent WO2022081807 (THE BROAD INSTITUTE, INC., 2022).

The structures appear in SMILES notation.

T1 sequence (Q92794 whole entry): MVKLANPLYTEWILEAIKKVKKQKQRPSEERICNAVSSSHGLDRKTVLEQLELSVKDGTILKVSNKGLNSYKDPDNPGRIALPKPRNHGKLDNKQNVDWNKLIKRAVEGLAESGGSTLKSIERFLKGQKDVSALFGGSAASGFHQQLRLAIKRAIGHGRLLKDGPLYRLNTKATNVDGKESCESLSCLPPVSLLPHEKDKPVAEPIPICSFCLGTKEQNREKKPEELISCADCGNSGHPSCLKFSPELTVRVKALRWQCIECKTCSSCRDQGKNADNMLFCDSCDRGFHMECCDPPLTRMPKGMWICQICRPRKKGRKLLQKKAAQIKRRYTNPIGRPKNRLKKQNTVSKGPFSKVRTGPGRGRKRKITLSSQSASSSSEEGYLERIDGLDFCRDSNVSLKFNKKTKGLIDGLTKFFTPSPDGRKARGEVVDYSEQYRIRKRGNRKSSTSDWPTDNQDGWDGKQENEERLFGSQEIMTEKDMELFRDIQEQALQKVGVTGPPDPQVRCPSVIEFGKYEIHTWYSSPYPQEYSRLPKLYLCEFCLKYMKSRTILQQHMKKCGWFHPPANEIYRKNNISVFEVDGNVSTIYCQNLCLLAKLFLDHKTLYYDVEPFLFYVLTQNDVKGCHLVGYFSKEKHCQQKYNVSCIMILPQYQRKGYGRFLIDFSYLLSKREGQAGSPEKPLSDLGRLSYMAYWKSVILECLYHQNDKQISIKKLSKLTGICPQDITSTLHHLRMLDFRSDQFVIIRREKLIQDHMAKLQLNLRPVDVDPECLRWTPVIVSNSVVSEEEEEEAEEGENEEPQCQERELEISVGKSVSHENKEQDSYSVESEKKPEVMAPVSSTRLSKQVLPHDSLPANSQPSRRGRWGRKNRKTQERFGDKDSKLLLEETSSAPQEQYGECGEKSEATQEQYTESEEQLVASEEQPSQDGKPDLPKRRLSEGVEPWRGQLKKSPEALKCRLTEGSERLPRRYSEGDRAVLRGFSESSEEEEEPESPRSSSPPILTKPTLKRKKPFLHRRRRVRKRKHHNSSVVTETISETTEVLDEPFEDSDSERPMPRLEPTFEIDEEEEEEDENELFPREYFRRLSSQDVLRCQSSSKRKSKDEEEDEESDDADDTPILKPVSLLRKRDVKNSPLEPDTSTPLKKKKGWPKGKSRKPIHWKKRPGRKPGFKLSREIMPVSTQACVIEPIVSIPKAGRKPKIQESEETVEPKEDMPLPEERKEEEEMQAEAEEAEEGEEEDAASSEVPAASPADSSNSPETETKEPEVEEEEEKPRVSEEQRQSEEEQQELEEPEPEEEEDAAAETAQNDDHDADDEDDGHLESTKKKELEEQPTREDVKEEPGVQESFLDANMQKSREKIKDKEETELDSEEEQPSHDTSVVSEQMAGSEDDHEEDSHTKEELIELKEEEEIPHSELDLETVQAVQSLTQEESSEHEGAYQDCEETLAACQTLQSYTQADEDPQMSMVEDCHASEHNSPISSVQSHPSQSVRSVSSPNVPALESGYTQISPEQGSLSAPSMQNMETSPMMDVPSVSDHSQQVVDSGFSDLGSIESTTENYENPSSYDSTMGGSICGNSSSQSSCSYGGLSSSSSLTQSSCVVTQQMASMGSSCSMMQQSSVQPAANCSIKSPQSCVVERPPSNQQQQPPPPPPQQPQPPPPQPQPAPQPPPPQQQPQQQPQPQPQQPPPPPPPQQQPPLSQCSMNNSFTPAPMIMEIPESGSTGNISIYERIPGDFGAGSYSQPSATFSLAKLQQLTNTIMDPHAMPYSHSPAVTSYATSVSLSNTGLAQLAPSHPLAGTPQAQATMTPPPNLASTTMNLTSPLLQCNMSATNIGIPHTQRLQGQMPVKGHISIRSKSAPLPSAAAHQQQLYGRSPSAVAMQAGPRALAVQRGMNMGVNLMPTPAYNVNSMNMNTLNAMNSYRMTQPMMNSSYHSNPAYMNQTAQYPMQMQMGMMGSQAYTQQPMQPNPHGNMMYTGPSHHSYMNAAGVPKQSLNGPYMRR
Histone acetyltransferase KAT6B, sequence (Q8WYB5 whole entry): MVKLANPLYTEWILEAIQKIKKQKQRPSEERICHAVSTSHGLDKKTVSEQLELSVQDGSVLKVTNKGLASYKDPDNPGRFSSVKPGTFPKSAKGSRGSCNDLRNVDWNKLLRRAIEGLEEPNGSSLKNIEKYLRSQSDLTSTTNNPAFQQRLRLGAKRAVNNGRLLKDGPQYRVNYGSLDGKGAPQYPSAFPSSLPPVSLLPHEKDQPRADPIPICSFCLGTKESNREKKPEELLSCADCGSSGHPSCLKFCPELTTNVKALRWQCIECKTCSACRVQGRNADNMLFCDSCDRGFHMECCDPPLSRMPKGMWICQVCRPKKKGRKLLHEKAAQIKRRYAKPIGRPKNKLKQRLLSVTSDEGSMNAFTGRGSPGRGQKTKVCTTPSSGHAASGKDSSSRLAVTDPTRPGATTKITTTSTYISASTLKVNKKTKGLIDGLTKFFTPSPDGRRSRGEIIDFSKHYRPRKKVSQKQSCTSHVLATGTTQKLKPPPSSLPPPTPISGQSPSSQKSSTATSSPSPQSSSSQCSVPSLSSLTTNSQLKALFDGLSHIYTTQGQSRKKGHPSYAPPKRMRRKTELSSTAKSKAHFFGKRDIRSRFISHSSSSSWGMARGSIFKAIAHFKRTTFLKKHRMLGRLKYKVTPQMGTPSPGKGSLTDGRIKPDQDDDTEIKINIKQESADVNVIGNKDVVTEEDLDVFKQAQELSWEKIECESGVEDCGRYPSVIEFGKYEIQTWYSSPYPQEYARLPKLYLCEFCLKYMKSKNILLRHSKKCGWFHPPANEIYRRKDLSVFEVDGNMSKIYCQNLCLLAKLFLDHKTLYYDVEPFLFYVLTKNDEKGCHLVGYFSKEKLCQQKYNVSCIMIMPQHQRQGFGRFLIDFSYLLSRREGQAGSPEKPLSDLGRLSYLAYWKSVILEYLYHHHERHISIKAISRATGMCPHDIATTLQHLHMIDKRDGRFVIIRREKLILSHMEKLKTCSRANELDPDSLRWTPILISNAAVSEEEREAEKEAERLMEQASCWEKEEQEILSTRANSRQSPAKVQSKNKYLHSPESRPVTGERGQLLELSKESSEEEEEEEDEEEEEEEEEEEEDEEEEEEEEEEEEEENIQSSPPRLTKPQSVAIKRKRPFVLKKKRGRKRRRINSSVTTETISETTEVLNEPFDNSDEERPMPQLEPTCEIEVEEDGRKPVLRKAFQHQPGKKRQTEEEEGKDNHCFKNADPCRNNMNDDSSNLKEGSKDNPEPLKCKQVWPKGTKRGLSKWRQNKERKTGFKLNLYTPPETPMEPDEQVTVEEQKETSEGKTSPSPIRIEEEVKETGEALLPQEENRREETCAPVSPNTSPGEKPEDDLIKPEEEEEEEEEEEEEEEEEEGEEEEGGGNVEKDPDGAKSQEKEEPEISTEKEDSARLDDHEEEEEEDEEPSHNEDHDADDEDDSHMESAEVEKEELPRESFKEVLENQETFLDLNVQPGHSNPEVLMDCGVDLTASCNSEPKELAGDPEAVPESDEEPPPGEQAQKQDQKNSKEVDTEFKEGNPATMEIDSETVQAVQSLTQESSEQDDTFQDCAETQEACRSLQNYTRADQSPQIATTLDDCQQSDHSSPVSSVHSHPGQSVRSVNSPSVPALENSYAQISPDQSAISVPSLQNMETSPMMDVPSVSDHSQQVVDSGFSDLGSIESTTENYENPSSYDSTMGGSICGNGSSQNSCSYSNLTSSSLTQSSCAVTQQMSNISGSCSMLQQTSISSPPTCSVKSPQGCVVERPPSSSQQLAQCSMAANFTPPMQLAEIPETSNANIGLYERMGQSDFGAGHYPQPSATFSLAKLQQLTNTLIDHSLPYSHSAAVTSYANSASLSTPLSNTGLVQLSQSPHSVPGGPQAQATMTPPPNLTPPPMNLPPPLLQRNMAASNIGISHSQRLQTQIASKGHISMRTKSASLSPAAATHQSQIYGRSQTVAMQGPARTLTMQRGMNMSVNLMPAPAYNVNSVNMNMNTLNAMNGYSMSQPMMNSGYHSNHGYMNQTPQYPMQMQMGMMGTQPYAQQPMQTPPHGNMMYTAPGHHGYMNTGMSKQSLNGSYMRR

The first assay addresses T1, Histone acetyltransferase KAT6A [507-778] (Human, UniProt Q92794).
T1 construct: 507-778
As to the kind of experiment: Kat6a Activity Assay.
For orientation: IC50 means the concentration that inhibits the measured activity by half. The low end stands for greater potency in that assay, the high end for weaker potency in that assay. `CC(Oc1ccccc1S(=O)(=O)NC(=O)c1cc2c(F)cc(N3CCC3)cc2o1)C(F)(F)F` (racemic) [WO2022081807, Example 13] yielded an IC50 of 19 nM.

Regarding `CCOc1cccc(Oc2ccccc2)c1S(=O)(=O)NC(=O)c1cc2c(F)cc(N3CCC3)cc2o1` [WO2022081807, Example 7], the IC50 is 4.15 nM.

Regarding `Cc1ccc(OCC2CCCC2)c(S(=O)(=O)NC(=O)c2cc3c(F)cc(N4CCC4)cc3o2)c1` [WO2022081807, Example 9], the IC50 was determined as 21 nM.

As to `CN(C)c1ccccc1S(=O)(=O)NC(=O)c1cc2c(F)cc(N3CCC3)cc2o1` [WO2022081807, Example 11], 7.52 nM corresponded to half-maximal inhibition (IC50).

With `C[C@@H](Oc1ccccc1S(=O)(=O)NC(=O)c1cc2c(F)cc(N3CCC3)cc2o1)C(F)(F)F` [WO2022081807, Example 14], half-maximal inhibition (IC50) was put at 28 nM.

In the case of `C[C@H](Oc1ccccc1S(=O)(=O)NC(=O)c1cc2c(F)cc(N3CCC3)cc2o1)C(F)(F)F` [WO2022081807, Example 15], inhibition was half-maximal at 47 nM (IC50).

Molecule `O=C(NS(=O)(=O)c1cccc2c1OCC2)c1cc2c(F)cc(N3CCC3)cc2o1` [WO2022081807, Example 18] displayed an IC50 of 24 nM.

`CCOc1cccc(C(C)C)c1S(=O)(=O)NC(=O)c1cc2c(F)cc(N3CCC3)cc2o1` [WO2022081807, Example 23] returned an IC50 of 29 nM.

In turn, `CC(C)c1ccc(C(C)C)c(S(=O)(=O)NC(=O)c2cc3c(F)cc(N4CCC4)cc3o2)c1` [WO2022081807, Example 30] registered a half-inhibitory concentration (IC50) of 25 nM.

For `CCc1cc(S(=O)(=O)NC(=O)c2cc3c(F)cc(N4CCC4)cc3o2)c(C)s1` [WO2022081807, Example 36], it took 367 nM to reach half-maximal inhibition (IC50).

Regarding `CC(C)Oc1cccc(Br)c1S(=O)(=O)NC(=O)c1cc2c(F)cc(N3CCC3)cc2o1` [WO2022081807, Example 39], the IC50 was 79 nM.

With `Cc1cccc(C(C)C)c1S(=O)(=O)NC(=O)c1cc2c(F)cc(N3CCC3)cc2o1` [WO2022081807, Example 53], the IC50 amounted to 70 nM.

`CN(C(=O)Oc1ccccc1S(=O)(=O)NC(=O)c1cc2c(F)cc(N3CCC3)cc2o1)c1ccccc1` [WO2022081807, Example 62] came in with an IC50 of 196 nM.

`O=C(NS(=O)(=O)c1cc(Br)ccc1OC(F)(F)F)c1cc2c(F)cc(N3CCC3)cc2o1` [WO2022081807, Example 82] returned an IC50 of 19 nM.

`O=C(NS(=O)(=O)c1c(NCC(F)F)cccc1C(F)(F)F)c1cc2c(F)cc(N3CCC3)cc2o1` [WO2022081807, Example 92] came in with an IC50 of 464 nM.

In the case of `CCOc1ccccc1S(=O)(=O)NC(=O)c1cc2c(F)cc(N3CC(C)(F)C3)cc2o1` [WO2022081807, Example 116], the IC50 stood at 2290 nM.

As for `COc1ccc(C(C)C)cc1S(=O)(=O)NC(=O)c1cc2c(F)cc(N3CCC3)cc2o1` [WO2022081807, Example 128], 8.15 nM corresponded to half-maximal inhibition (IC50).

`Cc1ccc2cccc(S(=O)(=O)NC(=O)c3cc4c(F)cc(N5CCC5)cc4o3)c2n1` [WO2022081807, Example 130]: the IC50 stood at 14 nM.

`O=C(NS(=O)(=O)c1ccccc1OC1CC1)c1cc2c(F)cc(N3CCC3)cc2o1` [WO2022081807, Example 131]: the IC50 is 23 nM.

`Cc1ccc(OC(C)C)c(S(=O)(=O)NC(=O)c2cc3c(F)cc(N4CCC4)cc3o2)c1` [WO2022081807, Example 134] returned an IC50 of 18 nM.

In turn, `CCOc1ccc(Br)cc1S(=O)(=O)NC(=O)c1cc2c(F)cc(N3CCC3)cc2o1` [WO2022081807, Example 135] yielded an IC50 of 17 nM.

`COc1cccc(N2CCOCC2)c1S(=O)(=O)NC(=O)c1cc2c(F)cc(N3CCC3)cc2o1` [WO2022081807, Example 137] returned an IC50 of 26 nM.

Regarding `COc1ccc(Br)cc1S(=O)(=O)NC(=O)c1cc2c(F)cc(N3CCC3)cc2o1` [WO2022081807, Example 139], the IC50 stood at 27 nM.

In the case of `O=C(NS(=O)(=O)c1cccc2c1OC(F)(F)C(F)(F)O2)c1cc2c(F)cc(N3CCC3)cc2o1` [WO2022081807, Example 140], half-maximal inhibition (IC50) required 28 nM.

The molecule `CCOc1ccc(CC)cc1S(=O)(=O)NC(=O)c1cc2c(F)cc(N3CC(F)C3)cc2o1` [WO2022081807, Example 153] came in with an IC50 of 11 nM.

Molecule `O=C(NS(=O)(=O)c1cccc2ccc(Cl)nc12)c1cc2c(F)cc(N3CC(F)C3)cc2o1` [WO2022081807, Example 154] registered an IC50 of 13 nM.

Turning to `COc1ccc(C)cc1S(=O)(=O)NC(=O)c1cc2c(F)cc(N3CCC3)cc2o1` [WO2022081807, Example 156], the IC50 amounted to 20 nM.

Turning to `COc1ccc(C)cc1S(=O)(=O)NC(=O)c1cc2c(F)cc(N3CC(F)C3)cc2o1` [WO2022081807, Example 158], the IC50 amounted to 26 nM.

Take `CCS(=O)(=O)c1nc2ccccn2c1S(=O)(=O)NC(=O)c1cc2c(F)cc(N3CC(F)C3)cc2o1` [WO2022081807, Example 167]: the IC50 came out at 517 nM.

Regarding `CCOc1ccccc1S(=O)(=O)NC(=O)c1cc2c(F)cc(N3CC[C@@H]3C(N)=O)cc2o1` [WO2022081807, Example 169], the IC50 was 11 nM.

`O=C(NS(=O)(=O)c1cc(Br)cc2c1OCC2)c1cc2c(F)cc(N3CCC3)cc2o1` [WO2022081807, Example 177] had an IC50 of 21 nM.

With `Cc1ccc(S(=O)(=O)NC(=O)c2cc3c(F)cc(N4CCC4)cc3o2)c2ccncc12` [WO2022081807, Example 191], the midpoint of inhibition, the IC50, lay at 310 nM.

With `COc1ccc(C2=CCN(C(=O)OC(C)(C)C)CC2)cc1S(=O)(=O)NC(=O)c1cc2c(F)cc(N3CCC3)cc2o1` [WO2022081807, Example 197], the IC50 came out at 6.06 nM.

`COc1ccc(-c2cccc(F)c2)cc1S(=O)(=O)NC(=O)c1cc2c(F)cc(N3CCC3)cc2o1` [WO2022081807, Example 198] displayed an IC50 of 12 nM.

`COc1ccc(N2CCCC2c2ccccc2)cc1S(=O)(=O)NC(=O)c1cc2c(F)cc(N3CCC3)cc2o1` (stereo not drawn) [WO2022081807, Example 201] showed an IC50 of 0.81 nM.

`CCOc1ccc(C(F)(F)F)cc1S(=O)(=O)NC(=O)c1cc2c(F)cc(N3CCC3)cc2o1` [WO2022081807, Example 209] gave an IC50 of 27 nM.

For `CC1(C)CCN1c1cc(F)c2cc(C(=O)NS(=O)(=O)c3ccccc3-c3ccccc3)oc2c1` [WO2022081807, Example 217], the IC50 came out at 1190 nM.

For the molecule `Cc1ccc2cccc(S(=O)(=O)NC(=O)c3cc4c(F)cc(N5CCC5C)cc4o3)c2n1` (stereo not drawn) [WO2022081807, Example 221], the IC50 came to 62 nM.

The next assay has as its target Histone acetyltransferase KAT6B (Human, UniProt Q8WYB5). As to the kind of experiment: Kat6b Activity Assay. As to the method:
In this case 50 nl DMSO were used instead of compounds. […] IC50 values were determined by regression analysis based on a 4 parameter equation (minimum, maximum, ICM, Hill; Y = Max + (Min - Max) / (1 + (X/ICso) Hill) using the Screener Software (Genedata).
In turn, `CC(C)c1ccc(OCC2CC2(F)F)c(S(=O)(=O)NC(=O)c2cc3c(F)cc(N4CCC4)cc3o2)c1` (racemic) [WO2022081807, Example 231] yielded an IC50 of 29 nM.

With `CC(C)c1cccnc1S(=O)(=O)NC(=O)c1cc2c(F)cc(N3CCC3)cc2o1` [WO2022081807, Example 79], half-maximal inhibition (IC50) required 14 nM.

The molecule `CCOc1ccc(C(C)(C)C)cc1S(=O)(=O)NC(=O)c1cc2c(F)cc(N3CC(F)C3)cc2o1` [WO2022081807, Example 113] returned an IC50 of 12 nM.

As to `COc1ccc(C(C)C)cc1S(=O)(=O)NC(=O)c1cc2c(F)cc(N3CCC3)cc2o1` [WO2022081807, Example 128], half-maximal inhibition (IC50) was put at 15 nM.

For `Cc1ccc2cccc(S(=O)(=O)NC(=O)c3cc4c(F)cc(N5CCC5)cc4o3)c2n1` [WO2022081807, Example 130], the IC50 amounted to 20 nM.

Take `Cc1ccc2cccc(S(=O)(=O)NC(=O)c3cc4c(F)cc(N5CC(F)C5)cc4o3)c2n1` [WO2022081807, Example 152]: the half-inhibitory concentration (IC50) worked out at 20 nM.

Regarding `CC(C)c1ccc(OCc2ccccc2)c(S(=O)(=O)NC(=O)c2cc3c(F)cc(N4CCC4)cc3o2)c1` [WO2022081807, Example 213], the IC50 worked out at 15 nM.

With `CC(C)c1ccc(OCC2CC2)c(S(=O)(=O)NC(=O)c2cc3c(F)cc(N4CCC4)cc3o2)c1` [WO2022081807, Example 214], half-maximal inhibition (IC50) was put at 20 nM.

The molecule `CC(C)(C)c1ccc(OC2CCC2)c(S(=O)(=O)NC(=O)c2cc3c(F)cc(N4CCC4)cc3o2)c1` [WO2022081807, Example 228] yielded an IC50 of 13 nM.

In turn, `CC(C)Oc1ccc(C(C)(C)C)cc1S(=O)(=O)NC(=O)c1cc2c(F)cc(N3CCC3)cc2o1` [WO2022081807, Example 229] had an IC50 of 28 nM.
